For one assay, the system named is HCT116 cells. The assay can be described thus: Caspase-3 activity in polyploid cells (Caspase-GLO 3/7). The assay is classed as cell-based, human. The settings on record: cells made polyploid with 200 nM AZD1152 (with or without washout); 1 μM ABT-263 for 4 hours; not in diploid cells. The protocol: Cell viability was determined 72 hours post-transfection. The red curve represents a synergistic combination. […] HCT116 cells (FIG. 10C-FIG. 10F) were treated for 24 hours with DMSO or 200 nM AZD1152. AZD1152 was then either left in the culture medium (AZD 1152) or washed out by replacing the medium with drug-free growth medium (AZD 1152 washout).
Caspase-3 activity was determined using the Caspase-GLO 3/7 Assay (Promega) in tandem with the CellTiter-GLO viability assay (Promega). Parallel experiments were performed, where in one experiment Caspase-3/7 activity was measured and in the other, cell viability was determined. As Caspase-3/7 activity on a per cell basis reflects both the specific activity of the Caspase-3 enzyme and the number of viable cells, the data are expressed as Caspase-3/7 activity divided by cell viability.

Another assay relates to BAX and BAK. The assay can be described thus: BAX and BAK activation, immunoprecipitation of active conformers. The settings on record: HCT116, D54MG, SW620, EJ1 cells made polyploid with 200 nM AZD1152 72 hours, then 1 μM ABT-263. It counts as cell-based, human. The procedure: HCT116 cells (FIG. 11A) were treated with DMSO or 200 nM AZD1152 for 72 hours followed by 2 hours with 1 μM ABT-263. Conformationally active BAK or BAX was immunoprecipitated and detected by immunoblotting. D54MG and HCT116 cells (FIG. 11B) were treated DMSO or 200 nM AZD1152 for 72 hours prior to the addition of 1 μM ABT-263 for 4 hours. Conformationally active BAK or BAX was immunoprecipitated and detected by immunoblotting (top and middle panel). Cell lysates were also fractionated and Cytochrome C release into the cytosolic fraction was detected by immunoblotting. HCT116, SW620, and D54MG cells (FIG. 11C) were treated with DMSO (untreated) or 200 nM AZD1152 (AZD1152) for 72 hours and the expression of Bcl-2 network components were detected by immunoblotting (FIG. 11D-FIG. 11E) HCT116 cells were treated as in FIG. 11B. Endogenous Bcl-XL and Mcl-1 were immunoprecipitated, and the Bcl-2 network components in the immunecomplexes were detected by immunoblotting.
FIG. 14 BAK and BAX activation in tumor cell lines. D54MG, SW620, and EJ1 cells were treated as in FIG. 17B. Conformationally active BAK and BAX was immunoprecipitated and detected by immunoblotting.
Cell lysates were either prepared using a CHAPS lysis buffer (10 mM HEPES, pH 7.4, 150 mM NaCl, 1% CHAPS) or a cell extraction buffer containing 1% Triton X-100, 0.1% SDS, and 0.5% deoxycholate (Invitrogen). […]

A further assay has as its system HCT116 tumors. The assay can be described thus: HCT116 tumor xenograft in mice. It counts as in vivo.

In the case of `CC1(C)CCC(c2ccc(Cl)cc2)=C(CN2CCN(c3ccc(C(=O)NS(=O)(=O)c4ccc(N[C@H](CCN5CCOCC5)CSc5ccccc5)c(S(=O)(=O)C(F)(F)F)c4)cc3)CC2)C1` [Example 1, N-(4-(4-((2-(4-chlorophenyl)-5,5-dimethyl-1-cyclohex-1-en-1-yl)methyl)piperazin-1-yl)benzoyl)-4-(((1R)-3-(morpholin-4-yl)-1-((phenylsulfanyl)methyl)propyl)amino)-3-((trifluoromethyl)sulfonyl)benzenesulfonamide], the “Caspase-3 activity in polyploid cells” value in the assay with HCT116 cells is listed as “induced Caspase-3 activity”. Besides, in the assay on BAX and BAK, the “BAX and BAK activation in polyploid cells” value is “rapidly and synergistically induced BAX and BAK activation”. The “time to detection of active BAX conformer in tumors” value in the assay on HCT116 tumors (ABT-263 75 mkd PO in tumors from mice pretreated 3 days with AZD1152, not in naive tumors) is no more than 4 h. Also, the “persistence of tumor regression, combination regimen of AZD1152/ABT-263” value with HCT116 tumors (HCT116 colon carcinoma model) is on record as “at least 2 weeks”. Also, the “antitumor efficacy, combination regimen of AZD1152/ABT-263” value in the assay on HCT116 tumors (HCT116 colon carcinoma model, tumors ~0.5 gram) is “rapid and more sustained tumor regression”.

For the origin of these results see US8624027B2, “Combination therapy for treating cancer and diagnostic assays for use therein” (AbbVie Inc., priority 2005, dated 2014).
